Calls of active or inactive are those of the source. No cut-off for these calls is given here.
Target: Ryanodine receptor 1 (Mus musculus) (UniProt E9PZQ0)
Test: Selective inhibition of Ryanodine receptor 1 mediated physiological [Ca2+] release (PCR) from sarcoplasmic reticulum against calcium-induced Ca2+ release (CICR)
Format: functional

Ryanodine receptor 1 (Mus musculus), sequence (E9PZQ0 whole entry): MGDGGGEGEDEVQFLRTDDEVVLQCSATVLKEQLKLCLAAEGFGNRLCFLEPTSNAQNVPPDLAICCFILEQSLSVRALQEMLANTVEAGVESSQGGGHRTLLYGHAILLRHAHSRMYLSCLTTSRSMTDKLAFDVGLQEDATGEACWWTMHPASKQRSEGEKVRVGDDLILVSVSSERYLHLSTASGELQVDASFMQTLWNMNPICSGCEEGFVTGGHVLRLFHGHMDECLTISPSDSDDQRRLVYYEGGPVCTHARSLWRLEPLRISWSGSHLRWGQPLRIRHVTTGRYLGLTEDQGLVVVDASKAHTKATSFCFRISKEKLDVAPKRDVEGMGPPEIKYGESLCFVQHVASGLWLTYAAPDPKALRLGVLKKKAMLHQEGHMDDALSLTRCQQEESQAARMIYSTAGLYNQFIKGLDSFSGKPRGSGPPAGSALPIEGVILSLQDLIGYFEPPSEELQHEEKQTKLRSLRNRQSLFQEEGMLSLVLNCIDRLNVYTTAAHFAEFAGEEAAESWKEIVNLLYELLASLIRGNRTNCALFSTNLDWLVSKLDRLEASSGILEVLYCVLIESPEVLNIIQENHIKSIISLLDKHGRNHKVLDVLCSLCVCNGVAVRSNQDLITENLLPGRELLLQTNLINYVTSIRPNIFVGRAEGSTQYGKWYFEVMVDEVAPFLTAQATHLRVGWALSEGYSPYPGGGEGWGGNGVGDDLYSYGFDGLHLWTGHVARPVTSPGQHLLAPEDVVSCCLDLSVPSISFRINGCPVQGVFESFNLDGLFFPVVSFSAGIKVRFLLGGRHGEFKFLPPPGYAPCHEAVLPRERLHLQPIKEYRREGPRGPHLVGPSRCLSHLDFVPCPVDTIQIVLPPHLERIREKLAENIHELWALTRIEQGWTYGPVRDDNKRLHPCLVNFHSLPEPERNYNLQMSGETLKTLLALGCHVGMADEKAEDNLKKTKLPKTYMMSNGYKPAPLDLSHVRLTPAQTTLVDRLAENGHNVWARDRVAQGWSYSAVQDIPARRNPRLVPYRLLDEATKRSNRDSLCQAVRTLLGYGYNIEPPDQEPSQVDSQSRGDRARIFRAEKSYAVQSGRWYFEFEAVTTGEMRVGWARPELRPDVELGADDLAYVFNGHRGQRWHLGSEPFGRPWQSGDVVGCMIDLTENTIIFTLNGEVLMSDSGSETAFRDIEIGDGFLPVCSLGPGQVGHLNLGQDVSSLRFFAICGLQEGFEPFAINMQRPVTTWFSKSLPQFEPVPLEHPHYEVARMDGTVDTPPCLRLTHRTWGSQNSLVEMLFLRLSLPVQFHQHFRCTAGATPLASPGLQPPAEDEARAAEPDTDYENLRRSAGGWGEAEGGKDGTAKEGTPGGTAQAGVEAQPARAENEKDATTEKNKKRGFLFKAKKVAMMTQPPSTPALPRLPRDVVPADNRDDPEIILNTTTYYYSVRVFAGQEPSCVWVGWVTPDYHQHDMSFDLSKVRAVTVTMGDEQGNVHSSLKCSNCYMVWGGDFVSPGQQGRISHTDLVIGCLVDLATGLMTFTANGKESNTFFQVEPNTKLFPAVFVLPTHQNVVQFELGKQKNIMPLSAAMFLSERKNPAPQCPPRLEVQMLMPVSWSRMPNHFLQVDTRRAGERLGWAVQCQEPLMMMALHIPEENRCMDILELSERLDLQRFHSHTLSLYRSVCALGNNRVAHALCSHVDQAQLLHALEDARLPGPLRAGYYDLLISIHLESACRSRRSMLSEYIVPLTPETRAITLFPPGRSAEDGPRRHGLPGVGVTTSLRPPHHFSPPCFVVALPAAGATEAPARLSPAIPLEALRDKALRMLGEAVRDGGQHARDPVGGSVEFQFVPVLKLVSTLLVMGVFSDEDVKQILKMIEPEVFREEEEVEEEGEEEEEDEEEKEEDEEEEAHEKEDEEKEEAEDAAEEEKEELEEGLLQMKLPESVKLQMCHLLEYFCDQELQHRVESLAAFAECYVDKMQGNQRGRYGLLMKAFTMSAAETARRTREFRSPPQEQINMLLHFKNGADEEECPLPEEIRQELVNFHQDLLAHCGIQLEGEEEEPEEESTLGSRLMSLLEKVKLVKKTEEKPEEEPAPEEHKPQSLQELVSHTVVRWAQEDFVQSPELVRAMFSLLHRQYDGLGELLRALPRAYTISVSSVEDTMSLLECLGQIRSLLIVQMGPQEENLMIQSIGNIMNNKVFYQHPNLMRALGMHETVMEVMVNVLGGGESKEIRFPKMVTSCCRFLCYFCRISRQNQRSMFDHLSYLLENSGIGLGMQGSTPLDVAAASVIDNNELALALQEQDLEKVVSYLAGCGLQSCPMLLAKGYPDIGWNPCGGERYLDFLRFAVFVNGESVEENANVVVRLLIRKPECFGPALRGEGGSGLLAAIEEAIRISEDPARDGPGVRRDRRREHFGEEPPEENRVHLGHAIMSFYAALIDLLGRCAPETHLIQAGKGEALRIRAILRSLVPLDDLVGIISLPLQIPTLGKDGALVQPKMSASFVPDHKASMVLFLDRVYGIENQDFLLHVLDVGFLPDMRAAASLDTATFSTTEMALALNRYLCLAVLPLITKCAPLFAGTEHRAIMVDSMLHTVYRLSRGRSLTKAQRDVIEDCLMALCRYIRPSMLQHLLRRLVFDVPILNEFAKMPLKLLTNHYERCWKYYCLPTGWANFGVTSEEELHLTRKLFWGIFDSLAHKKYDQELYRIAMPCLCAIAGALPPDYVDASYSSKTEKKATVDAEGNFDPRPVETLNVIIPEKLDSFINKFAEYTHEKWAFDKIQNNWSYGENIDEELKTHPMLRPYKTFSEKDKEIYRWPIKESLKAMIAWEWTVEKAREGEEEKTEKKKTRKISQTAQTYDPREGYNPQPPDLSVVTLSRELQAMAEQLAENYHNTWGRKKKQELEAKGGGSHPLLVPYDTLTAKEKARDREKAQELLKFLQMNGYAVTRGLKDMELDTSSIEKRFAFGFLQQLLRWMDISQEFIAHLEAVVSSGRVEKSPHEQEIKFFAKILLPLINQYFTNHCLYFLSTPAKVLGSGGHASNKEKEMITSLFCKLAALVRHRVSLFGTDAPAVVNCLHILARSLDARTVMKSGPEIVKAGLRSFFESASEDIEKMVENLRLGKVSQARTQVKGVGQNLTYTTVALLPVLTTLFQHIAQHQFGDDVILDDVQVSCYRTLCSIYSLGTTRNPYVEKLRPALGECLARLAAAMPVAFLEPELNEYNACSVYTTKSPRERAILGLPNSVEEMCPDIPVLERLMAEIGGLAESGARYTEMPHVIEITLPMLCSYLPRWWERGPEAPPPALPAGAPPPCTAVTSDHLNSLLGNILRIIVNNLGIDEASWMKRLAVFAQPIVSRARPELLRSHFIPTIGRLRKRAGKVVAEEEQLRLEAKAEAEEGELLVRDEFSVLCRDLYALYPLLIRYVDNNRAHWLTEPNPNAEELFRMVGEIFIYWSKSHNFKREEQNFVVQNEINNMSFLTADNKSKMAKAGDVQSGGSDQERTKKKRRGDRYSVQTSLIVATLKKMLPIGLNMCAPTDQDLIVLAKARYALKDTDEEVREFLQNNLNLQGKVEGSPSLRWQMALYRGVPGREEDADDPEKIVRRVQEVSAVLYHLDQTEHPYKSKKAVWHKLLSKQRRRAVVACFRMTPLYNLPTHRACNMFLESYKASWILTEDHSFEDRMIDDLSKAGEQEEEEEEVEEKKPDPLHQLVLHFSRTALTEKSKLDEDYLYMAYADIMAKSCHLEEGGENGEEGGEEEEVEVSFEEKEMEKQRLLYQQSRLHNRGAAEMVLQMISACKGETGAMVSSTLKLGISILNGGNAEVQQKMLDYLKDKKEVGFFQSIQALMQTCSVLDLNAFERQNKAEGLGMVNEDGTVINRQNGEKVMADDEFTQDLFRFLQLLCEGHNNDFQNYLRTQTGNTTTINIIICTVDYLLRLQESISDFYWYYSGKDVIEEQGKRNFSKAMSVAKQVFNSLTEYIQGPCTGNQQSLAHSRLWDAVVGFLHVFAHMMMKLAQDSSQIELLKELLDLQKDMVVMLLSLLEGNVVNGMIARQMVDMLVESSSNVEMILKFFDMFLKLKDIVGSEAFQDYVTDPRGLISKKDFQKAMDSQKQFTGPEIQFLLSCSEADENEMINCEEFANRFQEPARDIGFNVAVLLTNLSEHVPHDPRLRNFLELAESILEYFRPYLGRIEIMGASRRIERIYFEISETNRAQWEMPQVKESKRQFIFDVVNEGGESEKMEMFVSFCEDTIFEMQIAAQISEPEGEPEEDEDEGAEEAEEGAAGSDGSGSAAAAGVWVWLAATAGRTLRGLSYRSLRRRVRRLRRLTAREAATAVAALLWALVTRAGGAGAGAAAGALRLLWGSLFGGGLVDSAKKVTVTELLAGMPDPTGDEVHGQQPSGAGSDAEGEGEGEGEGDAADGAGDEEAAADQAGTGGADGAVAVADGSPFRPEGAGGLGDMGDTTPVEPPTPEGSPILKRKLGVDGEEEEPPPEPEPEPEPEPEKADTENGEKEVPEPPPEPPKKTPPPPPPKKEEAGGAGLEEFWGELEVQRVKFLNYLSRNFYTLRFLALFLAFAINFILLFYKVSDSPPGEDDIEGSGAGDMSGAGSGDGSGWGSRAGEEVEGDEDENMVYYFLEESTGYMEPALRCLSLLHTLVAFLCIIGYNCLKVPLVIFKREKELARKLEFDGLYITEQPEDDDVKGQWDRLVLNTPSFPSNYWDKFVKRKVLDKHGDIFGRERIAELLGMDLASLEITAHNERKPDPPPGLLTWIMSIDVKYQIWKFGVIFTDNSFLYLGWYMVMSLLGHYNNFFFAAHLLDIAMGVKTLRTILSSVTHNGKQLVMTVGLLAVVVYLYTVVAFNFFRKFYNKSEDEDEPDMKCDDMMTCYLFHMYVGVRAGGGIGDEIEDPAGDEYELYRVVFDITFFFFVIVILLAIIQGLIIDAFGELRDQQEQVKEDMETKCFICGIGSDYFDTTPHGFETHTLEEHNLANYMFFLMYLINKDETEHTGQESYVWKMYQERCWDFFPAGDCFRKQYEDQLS

Activity | SMILES
Active | [N-]=[N+]=Nc1cc(I)cc(CN2C(=O)CN(/N=C/c3ccc(-c4ccc([N+](=O)[O-])cc4)o3)C2=O)c1
Active | O=C1CN(/N=C/c2ccc(-c3ccc([N+](=O)[O-])cc3)o2)C(=O)N1Cc1cc(I)cc(C2(C(F)(F)F)N=N2)c1

From ChEMBL document CHEMBL1134961, “[(125)I]-N-[(3-azido-5-iodo)benzyl]dantrolene and [(125)I]-N-[[3-iodo-5-(3-trifluoromethyl-3H-diazirin-3-yl)]benzyl]dantrolene: photoaffinity probes specific for the physiological Ca(2+) release from sarcoplasmic reticulum of skeletal muscle” (Bioorg Med Chem Lett, 2002)
